Data: US20250170141A1, “MRGPRX2 MODULATORS AND RELATED METHODS OF TREATMENT” (Escient Pharmaceuticals, Inc., priority 2023, published 2025)
Like-named read-outs stand apart in the source and are kept apart here. Values belong to the compound of their own block, whether it stands above or below them.

Tests used:
Human LAD2 cells = test: Mast Cell Beta-Hexosaminidase Release Assay (LAD2 cells, 500 nM Cortistatin-14); assay type: cell-based; settings: read-out: MRGPRX2 Antagonist Activity
Procedure: Human LAD2 cells (NIH) were maintained in an incubator at 37° C. with 5% CO2 and cultured in StemPro-34 serum-free media (Gibco 10639011) supplemented with 2 mM L-glutamine, 100 U/ml penicillin, […] streptomycin and 100 ng/ml SCF (Invitrogen PEP0860), at a concentration of 2-5×10^5 cells/mL, with hemidepletion every 1-2 weeks.
Cells were transferred to SCF-Free medium at 2.5×10^5 cells/mL and kept in an incubator overnight. On the day of the assay, cells were washed twice in Assay Buffer (final concentrations 10 mM HEPES, 137 mM NaCl, 5.6 mM D-glucose, 2.7 mM KCl, 1 mM MgCl, 1.8 mM CalCl2, 0.4 mM Na2HPO4·7H2O, 0.04% BSA, pH=7.4) and plated in a 96-well v-bottom plate at 20,000 cells per well in 80 μL Assay Buffer. Antagonist compounds solubilized at 10 mM in DMSO were diluted in Assay Buffer to 10× final desired concentrations as a 10-point curve (10 μM final top concentration with 1:3 serial dilutions) and 10 μL added per well. Plates were then incubated for 1 hour at 37° C. Agonists were diluted in Assay Buffer to 10× desired concentrations and 10 μL of the appropriate agonist added to each well. The final concentration of Cortistatin-14 (Tocris 3374) used in antagonist assays was 500 nM. Final concentrations of DMSO were kept consistent across the plate. Plates were then incubated in a warm air oven for 30 minutes at 37° C., followed by centrifugation at 4° C. for 5 minutes at 450×g. 50 μL supernatant from each well was then transferred to a 96-well flat bottom plate containing 100 μL substrate solution per well (3.5 mg/mL p-Nitrophenyl-N-acetyl-o-D-glucosaminide (Sigma 487052) in Citrate Buffer containing a final concentration of 40 mM Citric Acid, 20 mM Na2HPO4·7H2O, pH=4.5). To the cell pellets left in the remaining assay buffer, 150 μL 0.1% Triton-X-100 was then added to each well, resuspended by pipetting up and down, and 50 μL cell lysates transferred to a second 96-well flat bottom plate containing 100 μL substrate solution per well. Plates containing transferred supernatant and cell lysates were then incubated in a warm air oven for 90 minutes at 37° C. After incubation, 50 μL of 400 mM Glycine buffer (pH 10.7) was added into each well and the plate was read on a Molecular Devices SpectraMax iD5 plate reader (absorbance at 405 nm with reference filter at 620 nm). After background subtraction, the percentage degranulation (percent beta-hexosaminidase release) was calculated as 100×(supernatant values)/(supernatant+lysate values), followed by analysis using GraphPad Prism software to calculate an IC50 value for each compound.
The activity ranges are denoted as follows: “+++++” denotes antagonist activity <100 nM; “++++” denotes antagonist activity between 100 and 500 nM; “+++” denotes activity between 501 and 1000 nM; “++” denotes activity between 1001 and 2500 nM; and “+” denotes activity >2500 nM.

[1] = Mouse Pharmacokinetic Studies (50 mg/kg oral gavage, plasma LC-MS/MS); assay type: in vivo; settings: male C57BL/6 mice, non-fasted
Procedure: Compounds were formulated in 5% DMSO, 5% Solutol, and 90% PBS without Ca and Mg (pH 7.4) at a concentration of […]. Male C57BL/6 mice (n=6/compound) were administered a 50 mg/kg dose of each compound by oral gavage under a non-fasted condition. Blood samples were collected via the Submandibular vein onto K2-EDTA at 0.5, 1, 2, 4, 8 and 24 hours after dosing, and plasma was prepared and stored at −80° C. until analysis. Plasma sample preparation for analysis was done by protein precipitation using acetonitrile (including Verapamil as an internal standard) followed by centrifugation. Compound concentrations were determined in extracted plasma using LC-MS/MS relative to a 12-point standard curve covering the 1 to 4000 nM range. Non-compartmental analysis using Phoenix WinNonlin was used to estimate pharmacokinetic parameters including area under the curve, clearance, and half-life. The administered dose was confirmed by analysis of residual dosing material by UPLC-UV relative to a single point calibration sample.

human MRGPRX2 = biological target: T1, human MRGPRX2 (Homo sapiens, UniProt Q96LB1); test: MRGPRX2 activity: IP-One Gq HTRF assay in CHO cells, antagonism versus 0.3 uM Cortistatin-14; assay type: cell-based; settings: versus 0.3 uM Cortistatin-14 agonist, CHO cells expressing human MRGPRX2, read-out: MRGPRX2 Antagonist Activity
T1 construct: expressed in transfected cells; host or cells: CHO cells, stably transfected (G418 and Hygromycin B selection)
T1 sequence (Q96LB1 1-330): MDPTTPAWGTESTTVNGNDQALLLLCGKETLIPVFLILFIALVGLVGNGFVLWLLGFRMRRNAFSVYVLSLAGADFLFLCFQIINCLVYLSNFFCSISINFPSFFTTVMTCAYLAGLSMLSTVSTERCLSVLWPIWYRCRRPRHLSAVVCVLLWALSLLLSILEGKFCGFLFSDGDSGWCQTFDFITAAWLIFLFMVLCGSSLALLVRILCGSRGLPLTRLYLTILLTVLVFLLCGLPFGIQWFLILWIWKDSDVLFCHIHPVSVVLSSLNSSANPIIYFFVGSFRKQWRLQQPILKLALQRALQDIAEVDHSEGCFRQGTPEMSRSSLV
How it was run: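 CHO cells stably expressing human MRGPRX2 were treated with a 10-point compound curve (30 uM top, 1:3) plus 0.3 μM Cortistatin-14 in LiCl-containing Tris buffer, pH 8. Incubation was 1 h at 37 °C then 1 h at room temperature; IP-1 was detected by HTRF and IC50 came from the HTRF ratio.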

[2] = Homo sapiens, LAD2, Mast Cell Beta-Hexosaminidase Release Assay
[3] = male, C57BL/6, mouse, po, 50 mg/kg
[4] = Mast Cell Beta-Hexosaminidase Release Assay

SMILES: C[C@H](c1ccccc1F)c1c(F)c(F)cc2c1NC(NCc1ncccc1F)=NS2(=O)=O [Compound 10-6B, (R)-6,7-difluoro-5-(1-(2-fluorophenyl)ethyl)-3-(((3-fluoropyridin-2-yl)methyl)amino)-4H-benzo[e][1,2,4]thiadiazine 1,1-dioxide]
IC50 (Human LAD2 cells; [2]): 100 to 500 nM
TBC [1]: 33 mL/min/kg
Cmax [1, 3]: 2700 nM
IC50 (human MRGPRX2): 100 to 500 nM

SMILES: CC(c1ccc(F)cc1)c1c(F)ccc2c1NC(NCc1ncccc1F)=NS2(=O)=O (single isomer, unassigned) [Compound 10-4A]
IC50 (Human LAD2 cells; [2]): 100 to 500 nM
TBC ([1]; 50 mg/kg): 11 mL/min/kg
Cmax [1, 3]: 9600 nM
half-life [1, 3]: 4.4 h
IC50 (human MRGPRX2): < 100 nM

SMILES: Cc1c(F)cccc1CNC1=NS(=O)(=O)c2ccc(F)c(C(C)c3ccccc3F)c2N1 (single isomer, unassigned) [Compound 10-3A]
IC50 (Human LAD2 cells; [2]): 100 to 500 nM
Cmax ([1]; 50 mg/kg): 370 nM
TBC ([1]; 50 mg/kg): 4.3 mL/min/kg
half-life [1, 3]: 2.5 h
IC50 (human MRGPRX2): < 100 nM

SMILES: Cc1c(F)cccc1CNC1=NS(=O)(=O)c2ccc(F)c(C(C)c3ccccc3F)c2N1 (single isomer, unassigned) [Compound 10-3B]
IC50 (Human LAD2 cells; [4]): < 100 nM
Cmax ([1]; 50 mg/kg): 4200 nM
T1/2 ([1]; 50 mg/kg): 2 h
TBC ([1]; 50 mg/kg): 41 mL/min/kg
IC50 (human MRGPRX2): < 100 nM

SMILES: CC(c1ccccc1F)c1c(F)ccc2c1NC(NCc1cccc(F)n1)=NS2(=O)=O (single isomer, unassigned) [Compound 10-2A]
IC50 (Human LAD2 cells; [4]): 501 to 1000 nM
Cmax ([1]; 50 mg/kg): 2700 nM
T1/2 ([1]; 50 mg/kg): 3.0 h
TBC ([1]; 50 mg/kg): 30 mL/min/kg
IC50 (human MRGPRX2): < 100 nM

SMILES: CC(c1ccccc1F)c1c(F)ccc2c1NC(NCc1ncccc1F)=NS2(=O)=O (single isomer, unassigned) [Compound 10-1A]
IC50 (Human LAD2 cells; [2]): 100 to 500 nM
Cmax ([1]; 50 mg/kg): 4600 nM
TBC ([1]; 50 mg/kg): 26 mL/min/kg
half-life [1, 3]: 2.6 h
IC50 (human MRGPRX2): < 100 nM

SMILES: CC(c1ccccc1F)c1c(F)ccc2c1NC(NCc1cccc(F)c1)=NS2(=O)=O (single isomer, unassigned) [Compound 10-5A]
IC50 (Human LAD2 cells; [4]): 1000 to 2500 nM
Cmax ([1]; 50 mg/kg): 2800 nM
TBC ([1]; 50 mg/kg): 50 mL/min/kg
half-life [1, 3]: 2.2 h
IC50 (human MRGPRX2): < 100 nM

SMILES: O=S1(=O)N=C(NCc2ccccc2C(F)(F)F)Nc2c1ccc(F)c2Oc1ccccc1Cl [Compound 1-27, 5-(2-chlorophenoxy)-6-fluoro-3-((2-(trifluoromethyl)benzyl)amino)-4H-benzo[e][1,2,4]thiadiazine 1,1-dioxide]
IC50 (human MRGPRX2): < 100 nM

SMILES: N#Cc1ccc(Oc2c(F)ccc3c2NC(NCc2ncccc2F)=NS3(=O)=O)cc1 [Compound 2-12, 4-((6-fluoro-3-(((3-fluoropyridin-2-yl)methyl)amino)-1,1-dioxido-4H-benzo[e][1,2,4]thiadiazin-5-yl)oxy)benzonitrile]
IC50 (human MRGPRX2): 1000 to 2500 nM

SMILES: O=S1(=O)N=C(NCc2ccccc2)Nc2c1ccc(F)c2Oc1ccccc1Cl [Compound 1-49, 3-(benzylamino)-5-(2-chlorophenoxy)-6-fluoro-4H-benzo[e][1,2,4]thiadiazine 1,1-dioxide]
IC50 (human MRGPRX2): < 100 nM

SMILES: O=S1(=O)N=C(NCc2cnccc2C(F)(F)F)Nc2c1ccc(F)c2Oc1ccccc1Cl [Compound 1-28, 5-(2-chlorophenoxy)-6-fluoro-3-(((4-(trifluoromethyl)pyridin-3-yl)methyl)amino)-4H-benzo[e][1,2,4]thiadiazine 1,1-dioxide]
IC50 (human MRGPRX2): 501 to 1000 nM

SMILES: Cc1cccnc1CNC1=NS(=O)(=O)c2ccc(F)c(Oc3ccccc3Cl)c2N1 [Compound 1-32, 5-(2-chlorophenoxy)-6-fluoro-3-(((3-methylpyridin-2-yl)methyl)amino)-4H-benzo[e][1,2,4]thiadiazine 1,1-dioxide]
IC50 (human MRGPRX2): 100 to 500 nM

SMILES: O=S1(=O)N=C(NCc2ccccc2F)Nc2c(Cc3cccc(Cl)c3)cccc21 [Compound 6-11, 5-(3-chlorobenzyl)-3-((2-fluorobenzyl)amino)-4H-benzo[e][1,2,4]thiadiazine 1,1-dioxide]
IC50 (human MRGPRX2): < 100 nM

Next, values leading:

IC50 (human MRGPRX2): < 100 nM
SMILES: C=C(c1ccccc1F)c1cccc2c1NC(NCc1ncccc1F)=NS2(=O)=O [Compound 13-2, 5-(1-(2-fluorophenyl)vinyl)-3-(((3-fluoropyridin-2-yl)methyl)amino)-4H-benzo[e][1,2,4]thiadiazine 1,1-dioxide]

IC50 (human MRGPRX2): < 100 nM
SMILES: O=S1(=O)N=C(NCc2cccc(F)c2)Nc2c(Cc3ccccc3Cl)cccc21 [Compound 12-22, 5-(2-chlorobenzyl)-3-((3-fluorobenzyl)amino)-4H-benzo[e][1,2,4]thiadiazine 1,1-dioxide]

IC50 (human MRGPRX2): < 100 nM
SMILES: O=S1(=O)N=C(NCc2cnccc2Cl)Nc2c(Cc3ccccc3Cl)cccc21 [Compound 12-32, 5-(2-chlorobenzyl)-3-(((4-chloropyridin-3-yl)methyl)amino)-4H-benzo[e][1,2,4]thiadiazine 1,1-dioxide]

IC50 (human MRGPRX2): 100 to 500 nM
SMILES: O=S1(=O)N=C(NCc2ncccc2F)Nc2c1ccc(F)c2/C=C/c1ccccc1F [Compound 14-2, (E)-6-fluoro-3-(((3-fluoropyridin-2-yl)methyl)amino)-5-(2-fluorostyryl)-4H-benzo[e][1,2,4]thiadiazine 1,1-dioxide]

IC50 (human MRGPRX2): 100 to 500 nM
SMILES: Cc1ccc(C(C)c2c(F)ccc3c2NC(NCc2cccc(F)c2)=NS3(=O)=O)cc1 (stereo not drawn) [Compound 22-22, 6-fluoro-3-((3-fluorobenzyl)amino)-5-(1-(p-tolyl)ethyl)-4H-benzo[e][1,2,4]thiadiazine 1,1-dioxide]

IC50 (human MRGPRX2): < 100 nM
SMILES: C[C@H](c1ccccc1F)c1c(F)ccc2c1NC(NCc1ccccc1F)=NS2(=O)=O [Compound 24-1, (R)-6-fluoro-3-((2-fluorobenzyl)amino)-5-(1-(2-fluorophenyl)ethyl)-4H-benzo[e][1,2,4]thiadiazine 1,1-dioxide]

IC50 (human MRGPRX2): < 100 nM
SMILES: Cc1ccc(CNC2=NS(=O)(=O)c3cccc(Cc4ccccc4Cl)c3N2)c(Cl)c1 [Compound 12-5, 3-((2-chloro-4-methylbenzyl)amino)-5-(2-chlorobenzyl)-4H-benzo[e][1,2,4]thiadiazine 1,1-dioxide]

IC50 (human MRGPRX2): < 100 nM
SMILES: Cc1cccc(CNC2=NS(=O)(=O)c3cccc(Cc4ccccc4Cl)c3N2)c1 [Compound 12-20, 5-(2-chlorobenzyl)-3-((3-methylbenzyl)amino)-4H-benzo[e][1,2,4]thiadiazine 1,1-dioxide]
